Experimental findings from ChEMBL document CHEMBL1124198, “Potential inhibitors of S-adenosylmethionine-dependent methyltransferases. 11. Molecular dissections of neplanocin A as potential inhibitors of S-adenosylhomocysteine hydrolase” (J Med Chem, 1988) are described below.

Assay [1] deals with T1, Adenosylhomocysteinase (Homo sapiens, UniProt P23526).
In another assay the test system is Vaccinia virus. As to conditions: l929; call rule not given here.
Assay [2] addresses Adenosylhomocysteinase (Mus musculus, UniProt P50247). The assay can be described thus: biochemical.
In assay [3] the target is T1, Adenosylhomocysteinase. The source holds these as a separate data set.

Where only a bound is given, the exact number is not on record here.

T1 sequence (P23526 whole entry): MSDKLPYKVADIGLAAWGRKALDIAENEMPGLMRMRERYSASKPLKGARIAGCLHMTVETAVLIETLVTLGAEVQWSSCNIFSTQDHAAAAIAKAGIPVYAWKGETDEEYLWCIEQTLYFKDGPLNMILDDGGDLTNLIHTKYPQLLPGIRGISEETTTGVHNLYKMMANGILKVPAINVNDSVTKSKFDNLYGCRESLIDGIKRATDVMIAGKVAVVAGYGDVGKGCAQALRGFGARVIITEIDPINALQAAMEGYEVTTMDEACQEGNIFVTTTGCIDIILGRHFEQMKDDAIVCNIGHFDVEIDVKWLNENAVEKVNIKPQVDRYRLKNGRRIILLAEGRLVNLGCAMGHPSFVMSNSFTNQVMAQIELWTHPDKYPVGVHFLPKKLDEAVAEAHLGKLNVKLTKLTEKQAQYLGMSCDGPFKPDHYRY
Sequence of Adenosylhomocysteinase (Mus musculus, UniProt P50247) (P50247 whole entry): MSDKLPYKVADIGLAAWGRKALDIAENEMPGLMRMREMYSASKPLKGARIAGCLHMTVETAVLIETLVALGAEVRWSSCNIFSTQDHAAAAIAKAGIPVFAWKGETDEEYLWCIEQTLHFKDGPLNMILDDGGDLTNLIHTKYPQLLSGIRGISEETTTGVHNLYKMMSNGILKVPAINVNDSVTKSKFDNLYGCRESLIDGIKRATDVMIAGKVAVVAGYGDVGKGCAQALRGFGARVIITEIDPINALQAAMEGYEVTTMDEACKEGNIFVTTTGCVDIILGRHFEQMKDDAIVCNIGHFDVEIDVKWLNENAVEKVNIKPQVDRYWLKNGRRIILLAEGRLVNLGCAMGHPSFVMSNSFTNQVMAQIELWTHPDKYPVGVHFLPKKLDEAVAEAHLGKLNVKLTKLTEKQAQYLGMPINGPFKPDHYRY

On to `C/C(=C\Cn1cnc2c(N)ncnc21)CO`, for which the IC50 result was “Not Active” against Adenosylhomocysteinase [1] and 300 µM with Vaccinia virus.

For `Nc1nccc2c1ncn2C/C=C\[C@@H](O)CO`, the IC50 result against Adenosylhomocysteinase [1] was “Not Active”; at Adenosylhomocysteinase [2] it was 61 µM; with Vaccinia virus it was 70 µM.

`Nc1ncnc2c1ncn2C/C=C/C(O)CO` (configuration not stated): the Ki entry on Adenosylhomocysteinase [3] is given as “Not Active”. The compound also had an IC50 in the assay on Vaccinia virus of 250 µM.

`C/C(=C/Cn1cnc2c(N)ncnc21)CO`: the figures for the IC50 result against Adenosylhomocysteinase [1], against Adenosylhomocysteinase [2] and in the assay with Vaccinia virus were “Not Active”, 200 µM and 220 µM, respectively.

As for `Nc1ncnc2c1ncn2[C@@H]1C=C(CO)[C@@H](O)[C@H]1O` [NEOPLANOCIN A], the values for the 50% inhibitory concentration (IC50) result at Adenosylhomocysteinase [1], against Adenosylhomocysteinase [2] and in the assay on Vaccinia virus were “Not Active”, 0.05 µM and 0.08 µM, respectively.

As for `Nc1ncnc2c1ncn2C/C=C(/CO)[C@@H](O)CO.Nc1ncnc2c1ncn2C/C=C(\CO)[C@@H](O)CO`, the figures for the IC50 result against Adenosylhomocysteinase [1] and with Vaccinia virus were “Not Active” and 170 µM, respectively.

For the compound `Nc1ncnc2c1ncn2C/C=C/CO`, the IC50 result at Adenosylhomocysteinase [1] is “Not Active”; against Adenosylhomocysteinase [2], 230 µM; with Vaccinia virus, 109 µM.

For the compound `Nc1nccc2c1ncn2CC=C(CO)CO`, the IC50 entry was “Not Active” at Adenosylhomocysteinase [1], 110 µM on Adenosylhomocysteinase [2] and 500 µM in the assay on Vaccinia virus.

Turning to `CC(C)=CCn1cnc2c(N)ncnc21`, the Ki entry on Adenosylhomocysteinase [3] was “Not Active”. This compound also had an IC50 with Vaccinia virus of 60 µM.

Take `Nc1ncnc2c1ncn2CC=C(CO)CO`: the IC50 entry is “Not Active” against Adenosylhomocysteinase [1], 65 µM on Adenosylhomocysteinase [2] and 700 µM with Vaccinia virus.

Take `Nc1ncnc2c1ncn2CC#CCO`: the Ki entry at Adenosylhomocysteinase [3] is recorded as “Not Active”. Further, the 50% inhibitory concentration (IC50) in the assay with Vaccinia virus is > 320 µM.

Consider `Nc1ncnc2c1ncn2C/C=C\CO`, for which the IC50 result against Adenosylhomocysteinase [1] was “Not Active”; on Adenosylhomocysteinase [2], 145 µM; in the assay on Vaccinia virus, 108 µM.

As to `Nc1nccc2c1ncn2CC#CCO`, the IC50 entry was “Not Active” at Adenosylhomocysteinase [1], 200 µM on Adenosylhomocysteinase [2] and 300 µM in the assay with Vaccinia virus.

With `Nc1nccc2c1ncn2C/C=C/CO`, at Adenosylhomocysteinase [3], the Ki result was “Not Active”. Also, half-maximal inhibition with Vaccinia virus (IC50) required 40 µM.

Consider `Nc1ncnc2c1ncn2C/C=C\[C@@H](O)CO`, for which the IC50 entry on Adenosylhomocysteinase [1] is “Not Active”; against Adenosylhomocysteinase [2] it was 100 µM; with Vaccinia virus, 100 µM.

Regarding `Nc1nccc2c1ncn2C/C=C\CO`, the values for the IC50 entry at Adenosylhomocysteinase [1], at Adenosylhomocysteinase [2] and with Vaccinia virus were “Not Active”, 200 µM and 300 µM, respectively.
